This note sets out measurements from patent US12486269B2 (Aconcagua Bio, Inc., priority 2024, dated 2025).

The target of experiment [1] is T1, COS-7/AMY3 (human calcitonin receptor (CTR) and RAMP3) (Homo sapiens, UniProt O60896+P30988).
T1 construct: expressed in transfected cells; host or cells: COS-7
The experiment can be described thus: Amylin Receptor cAMP Assay II. Particulars: values marked **: Amylin Receptor cAMP Assay II; COS-7/AMY3 cells, cAMP dynamic 2 kit, 30 min; read-out: Amylin Receptor cAMP Stimulation Activity: EC50. Format: cell-based. The procedure, abridged: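 COS-7 cells stably co-expressing human CTR and RAMP3 (AMY3), 2000 cells/well in HBSS with 20 mM HEPES, 0.5 mM IBMX, 0.1% casein, stimulated with compound for 30 min at 37 °C. cAMP measured by HTRF (665/615 nm), activity normalized between vehicle and maximal control.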

In experiment [2] the target is T2, human calcitonin receptor (CTR) (Homo sapiens, UniProt P30988).
T2 construct: expressed in transfected cells; host or cells: COS-7 (COS7-human CTR Clone #2)
T2 sequence (P30988 25-474): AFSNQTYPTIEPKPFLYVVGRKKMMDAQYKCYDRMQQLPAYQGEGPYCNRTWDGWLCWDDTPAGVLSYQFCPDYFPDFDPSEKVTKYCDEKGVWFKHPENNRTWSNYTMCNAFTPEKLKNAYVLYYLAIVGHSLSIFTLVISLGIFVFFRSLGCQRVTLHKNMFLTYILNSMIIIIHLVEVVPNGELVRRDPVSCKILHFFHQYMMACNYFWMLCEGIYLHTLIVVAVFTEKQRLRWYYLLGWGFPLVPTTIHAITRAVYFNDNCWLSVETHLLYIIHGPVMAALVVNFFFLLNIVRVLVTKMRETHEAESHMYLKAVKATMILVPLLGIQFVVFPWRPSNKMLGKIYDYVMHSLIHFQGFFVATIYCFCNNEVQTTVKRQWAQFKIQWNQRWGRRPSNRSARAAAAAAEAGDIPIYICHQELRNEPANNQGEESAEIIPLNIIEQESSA
The experiment in a line: Calcitonin Receptor (CTR) cAMP Assay. Format: cell-based. Particulars: COS7-human CTR Clone #2 stable cell line, cAMP dynamic 2 kit, 30 min; read-out: Calcitonin Receptor cAMP Stimulation Activity: EC50. The procedure, abridged:
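COS-7 cells stably expressing human CTR (2000 cells/well) were incubated 30 min at 37 °C with 4-fold serially diluted compound in HBSS/20 mM HEPES/0.5 mM IBMX/0.1% casein. cAMP was detected by HTRF (665/615 nm) after 1 h at RT. % activity was normalised to vehicle and positive controls.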

T1 sequence (O60896 24-148, one chain of several): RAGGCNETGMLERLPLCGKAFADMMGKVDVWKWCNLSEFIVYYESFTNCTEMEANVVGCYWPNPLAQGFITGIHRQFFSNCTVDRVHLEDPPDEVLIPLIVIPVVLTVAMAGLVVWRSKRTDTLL

With `COc1cccc2c1CC[C@H]2Nc1nccc2cc(-c3c4c(nc(CCc5ccc(F)cc5)c3-c3n[nH]c(=O)o3)[C@H]3N(CCC3(C)C)C4=O)sc12` [Compound 182, 5-((S)-2-(4-fluorophenethyl)-4-(7-(((R)-4-methoxy-2,3-dihydro-1H-inden-1-yl)amino)thieno[2,3-c]pyridin-2-yl)-9,9-dimethyl-5-oxo-7,8,9,9a-tetrahydro-5H-pyrido[2,3-a]pyrrolizin-3-yl)-1,3,4-oxadiazol-2(3H)-one], the EC50 in experiment [1] came out at 52.9 nM; in experiment [2], 7.85 nM.
As to `COc1c(F)ccc2c1CC(F)(F)[C@@H]2Nc1nccc2cc(-c3c4c(nc(CCc5ccc(F)cc5)c3-c3n[nH]c(=O)o3)[C@@H]3CCCN3C4=O)sc12` [Compound 290, 5-((S)-2-(4-fluorophenethyl)-5-oxo-4-(7-(((R)-2,2,5-trifluoro-4-methoxy-2,3-dihydro-1H-inden-1-yl)amino)thieno[2,3-c]pyridin-2-yl)-7,8,9,9a-tetrahydro-5H-pyrido[2,3-a]pyrrolizin-3-yl)-1,3,4-oxadiazol-2(3H)-one], the half-maximal effective concentration (EC50) in experiment [1] came to 1640 nM; in experiment [2] it was 17.6 nM.
As for `CC1(C)Oc2cc(-c3c4c(nc(CCc5ccc(F)cc5)c3-c3n[nH]c(=O)o3)[C@@H]3CCCN3C4=O)ccc2N(Cc2ccc(F)cn2)C1=O` [Compound 186, (S)-7-(2-(4-fluorophenethyl)-5-oxo-3-(5-oxo-4,5-dihydro-1,3,4-oxadiazol-2-yl)-7,8,9,9a-tetrahydro-5H-pyrido[2,3-a]pyrrolizin-4-yl)-4-((5-fluoropyridin-2-yl)methyl)-2,2-dimethyl-2H-benzo[b][1,4]oxazin-3(4H)-one], the EC50 turned out to be 37.2 nM in experiment [1] and 0.682 nM in experiment [2].
As for `COc1cccc2c1CC[C@H]2Nc1nccc2cc(-c3c(-c4n[nH]c(=O)o4)c(CCc4ccc(F)cc4)nc4c3c(=O)n3n4CCC3)sc12` [Compound 155], the EC50 in experiment [1] was found to be 33.5 nM; in experiment [2] it was 1.21 nM.
On to `COc1cccc2c1CC[C@H]2Nc1nccc2cc(-c3c4c(nc(CCc5ccc(F)cc5)c3-c3cc(=O)[nH]o3)[C@@H]3CCCN3C4=O)sc12` [Compound 150, 5-((S)-2-(4-fluorophenethyl)-4-(7-(((R)-4-methoxy-2,3-dihydro-1H-inden-1-yl)amino)thieno[2,3-c]pyridin-2-yl)-5-oxo-7,8,9,9a-tetrahydro-5H-pyrido[2,3-a]pyrrolizin-3-yl)isoxazol-3(2H)-one], for which the EC50 is 25.4 nM in experiment [1] and 1.06 nM in experiment [2].
As for `COc1ccc(CCc2nc3c(c(-c4cc5ccnc(N[C@@H]6CCc7c(OC)cccc76)c5s4)c2-c2n[nH]c(=O)o2)C(=O)N2CCC[C@@H]32)cc1F` [Compound 244, 5-((S)-2-(3-fluoro-4-methoxyphenethyl)-4-(7-(((R)-4-methoxy-2,3-dihydro-1H-inden-1-yl)amino)thieno[2,3-c]pyridin-2-yl)-5-oxo-7,8,9,9a-tetrahydro-5H-pyrido[2,3-a]pyrrolizin-3-yl)-1,3,4-oxadiazol-2(3H)-one], the concentration giving a half-maximal response (EC50) worked out at 22.7 nM in experiment [1] and 1.16 nM in experiment [2].
Take `O=C1c2c(nc(CCc3ccc(F)cc3)c(-c3n[nH]c(=O)o3)c2-c2cc3ccnc(N[C@@H]4CCc5cc(F)c(F)cc54)c3s2)C23CC(CN12)C3` [Compound 190, (R)-5-(4-(7-((5,6-difluoro-2,3-dihydro-1H-inden-1-yl)amino)thieno[2,3-c]pyridin-2-yl)-2-(4-fluorophenethyl)-5-oxo-8,9-dihydro-5H,7H-8,9a-methanopyrido[2,3-a]pyrrolizin-3-yl)-1,3,4-oxadiazol-2(3H)-one]: the concentration for a half-maximal effect (EC50) in experiment [1] is 0.184 nM; in experiment [2] it was 0.00786 nM.
`COc1cccc2c1CC[C@H]2Nc1nccc2cc(-c3c4c(nc(CCc5ccccc5C(F)(F)F)c3-c3noc(=O)[nH]3)[C@@H]3CCCN3C4=O)sc12` [Compound 125, 3-((S)-4-(7-(((R)-4-methoxy-2,3-dihydro-1H-inden-1-yl)amino)thieno[2,3-c]pyridin-2-yl)-5-oxo-2-(2-(trifluoromethyl)phenethyl)-7,8,9,9a-tetrahydro-5H-pyrido[2,3-a]pyrrolizin-3-yl)-1,2,4-oxadiazol-5(4H)-one]: the concentration giving a half-maximal response (EC50) in experiment [1] worked out at 50.5 nM; in experiment [2], 0.711 nM.
`COc1cccc2c1CC[C@H]2Nc1nccc2cc(-c3c(-c4n[nH]c(=O)o4)c(CCc4ccc(F)cc4)nc4c3S(=O)(=O)CC4C(C)C)sc12` (stereo partly drawn) [Compound 156, 5-(5-(4-fluorophenethyl)-3-isopropyl-7-(7-(((R)-4-methoxy-2,3-dihydro-1H-inden-1-yl)amino)thieno[2,3-c]pyridin-2-yl)-1,1-dioxido-2,3-dihydrothieno[3,2-b]pyridin-6-yl)-1,3,4-oxadiazol-2(3H)-one]: the concentration for a half-maximal effect (EC50) in experiment [1] is 55.4 nM; in experiment [2], 2.48 nM.
With `O=C1c2c(nc(CCc3ccc(F)cc3)c(-c3n[nH]c(=O)o3)c2-c2cc3ccnc(N[C@@H]4CCc5ccc(F)cc54)c3s2)[C@@H]2CCCN12` [Compound 246, 5-((S)-4-(7-(((R)-6-fluoro-2,3-dihydro-1H-inden-1-yl)amino)thieno[2,3-c]pyridin-2-yl)-2-(4-fluorophenethyl)-5-oxo-7,8,9,9a-tetrahydro-5H-pyrido[2,3-a]pyrrolizin-3-yl)-1,3,4-oxadiazol-2(3H)-one], the EC50 is 6.78 nM in experiment [1] and 0.219 nM in experiment [2].
The matching figures for `COc1c(F)ccc2c1C[C@@H](F)[C@H]2Nc1nc(C)cc2cc(-c3c4c(nc(CCc5ccc(F)cc5)c3-c3n[nH]c(=O)o3)[C@@H]3CCCN3C4=O)sc12` [Compound 301, 5-((S)-4-(7-(((1S,2R)-2,5-difluoro-4-methoxy-2,3-dihydro-1H-inden-1-yl)amino)-5-methylthieno[2,3-c]pyridin-2-yl)-2-(4-fluorophenethyl)-5-oxo-7,8,9,9a-tetrahydro-5H-pyrido[2,3-a]pyrrolizin-3-yl)-1,3,4-oxadiazol-2(3H)-one]: 0.857 nM and 0.0551 nM.
Turning to `COc1cccc2c1CC[C@H]2Nc1nccc2cc(-c3c4c(nc(CCc5ccc(F)cc5)c3-c3n[nH]c(=O)o3)[C@]3(C)CCCN3C4=O)sc12` [Compound 178, 5-((S)-2-(4-fluorophenethyl)-4-(7-(((R)-4-methoxy-2,3-dihydro-1H-inden-1-yl)amino)thieno[2,3-c]pyridin-2-yl)-9a-methyl-5-oxo-7,8,9,9a-tetrahydro-5H-pyrido[2,3-a]pyrrolizin-3-yl)-1,3,4-oxadiazol-2(3H)-one], the EC50 in experiment [1] amounted to 203 nM; in experiment [2], 3.19 nM.
For `COc1cccc2c1CC[C@H]2Nc1nccc2cc(-c3c4c(nc(CCC5CCOCC5)c3-c3cc(=O)[nH]o3)[C@@H]3CCCN3C4=O)sc12` [Compound 205, 5-((S)-4-(7-(((R)-4-methoxy-2,3-dihydro-1H-inden-1-yl)amino)thieno[2,3-c]pyridin-2-yl)-5-oxo-2-(2-(tetrahydro-2H-pyran-4-yl)ethyl)-7,8,9,9a-tetrahydro-5H-pyrido[2,3-a]pyrrolizin-3-yl)isoxazol-3(2H)-one], the EC50 in experiment [1] turned out to be 342 nM; in experiment [2] it was 5.7 nM.
Regarding `COc1c(F)ccc2c1C[C@@H](F)[C@H]2Nc1nccc2cc(-c3c4c(nc(CCc5ccc(F)cc5)c3-c3n[nH]c(=O)o3)C35CC(CN3C4=O)C5)sc12` [Compound 291, 5-(4-(7-(((1S,2R)-2,5-difluoro-4-methoxy-2,3-dihydro-1H-inden-1-yl)amino)thieno[2,3-c]pyridin-2-yl)-2-(4-fluorophenethyl)-5-oxo-5,7,8,9-tetrahydro-8,9a-methanopyrido[2,3-a]pyrrolizin-3-yl)-1,3,4-oxadiazol-2(3H)-one], the EC50 in experiment [1] was determined as 0.363 nM; in experiment [2], 0.0138 nM.

The EC50 is the concentration that produces a half-maximal response.
